Experimental data: patent US10111936B2, “Metal-glycoprotein complexes and photodynamic therapy of immune privileged sites with same” (Theralase Technologies, Inc., priority 2015, dated 2018)
Read-outs that look alike come from different tables or passages of the source.

Legend:
[1] = target: Transferrin (Homo sapiens, UniProt P02787); assay: Binding to transferrin by absorption spectra; conditions: transferrin 0.2 mg/mL; photosensitizer 10 uM
Procedure: Transferrin (0.2 mg/mL) was incubated with the photosensitizers (10 uM) and absorption spectra were obtained.
Binding of Ruthenium and Ruthenium-Rhodium-based photosensitizers to transferrin is characterized by a characteristic signature: an increased peak of absorption at 280 nm and a new peak in 400-500 nm range.

[2] = system: AY27 cancer cell line; assay: In vitro PDT in hypoxia; format: cell-based; conditions: 635 nm, 90 J cm−2, hypoxic 0.5-0.1% O2, 0.4 mg/mL human transferrin
Procedure: The cells were incubated for 90 minutes in premix of the photosensitizer and 0.4 mg/mL human transferrin (or without transferrin, as a control group) as described above for in vitro PDT. Dark toxicity and PDT effect of the photosensitizers on AY27 cell line under 635 nm (90 J cm−2) irradiation in the absence and presence of transferrin in normoxic (FIGS. 17A, 17B) and hypoxic (0.5-0.1% O2, FIGS. 17C, 17D) conditions. The cells were incubated with the photosensitizer and transferrin for 90 minutes. After that, the cells were irradiated and the medium was replaced with a fresh one (without photosensitizer and transferrin). On the next day (21 hours post-irradiation), viability of the cells was measured using Presto Blue viability assay, and percent of cell kill was calculated. The PDT effect shown is a result of subtraction of “photosensitizer alone” and “light alone” cell kill from the total PDT cell kill.
The cells were incubated for 90 minutes in premix of the photosensitizer and 0.4 mg/mL human transferrin (or without transferrin, as a control group) as described above for in vitro PDT. […] On the next day (21 hours post-irradiation), viability of the cells was measured using Presto Blue viability assay, and percent of cell kill was calculated. […]

[3] = Singlet oxygen production, cell free (SOG indicator fluorescence); format: physicochemical; parameters: unit not given here
Procedure: (§1) The photosensitizers were diluted in phosphate buffer (pH=7.0)+100 mM NaCl or incomplete DMEM. The irradiation was performed in 96-well plates (100 uL working volume). Generation of singlet oxygen was measured by fluorescence signal of SOG indicator, generation of hydroxyl radical by fluorescence signal of HPF indicator. The signal presented is a result of subtraction of the signal in the presence of scavengers (NaN3 for singlet oxygen and DMTU for hydroxyl radical) from the total fluorescence signal.

[4] = Hydroxyl radical production, cell free (HPF indicator fluorescence); format: physicochemical; parameters: unit not given here
Procedure: as §1

[5] = system: HT1376 cells
[6] = 530 nm & 1092 J cm−2, incomplete DMEM, 0.8 mg/mL transferrin
[7] = 530 nm & 1092 J cm−2, incomplete DMEM, 1.6 mg/mL transferrin
[8] = 530 nm & 1092 J cm−2, incomplete DMEM, 3.2 mg/mL transferrin
[9] = 530 nm & 1092 J cm−2, incomplete DMEM, no transferrin
[10] = 530 nm & 1092 J cm−2, phosphate buffer, 0.8 mg/mL transferrin
[11] = 530 nm & 1092 J cm−2, phosphate buffer, 1.6 mg/mL transferrin
[12] = 530 nm & 1092 J cm−2, phosphate buffer, 3.2 mg/mL transferrin
[13] = 530 nm & 1092 J cm−2, phosphate buffer, no transferrin
[14] = 635 nm & 649 J cm−2, incomplete DMEM, 0.8 mg/mL transferrin
[15] = 635 nm & 649 J cm−2, incomplete DMEM, 1.6 mg/mL transferrin
[16] = 635 nm & 649 J cm−2, incomplete DMEM, 3.2 mg/mL transferrin
[17] = 635 nm & 649 J cm−2, incomplete DMEM, no transferrin
[18] = 635 nm & 649 J cm−2, phosphate buffer, 0.8 mg/mL transferrin
[19] = 635 nm & 649 J cm−2, phosphate buffer, 1.6 mg/mL transferrin
[20] = 635 nm & 649 J cm−2, phosphate buffer, 3.2 mg/mL transferrin
[21] = 635 nm & 649 J cm−2, phosphate buffer, no transferrin
[22] = 808 nm & 4000 J cm−2, incomplete DMEM, 0.8 mg/mL transferrin
[23] = 808 nm & 4000 J cm−2, incomplete DMEM, 1.6 mg/mL transferrin
[24] = 808 nm & 4000 J cm−2, incomplete DMEM, 3.2 mg/mL transferrin
[25] = 808 nm & 4000 J cm−2, incomplete DMEM, no transferrin
[26] = 808 nm & 4000 J cm−2, phosphate buffer, 0.8 mg/mL transferrin
[27] = 808 nm & 4000 J cm−2, phosphate buffer, 1.6 mg/mL transferrin
[28] = 808 nm & 4000 J cm−2, phosphate buffer, 3.2 mg/mL transferrin
[29] = 808 nm & 4000 J cm−2, phosphate buffer, no transferrin

Sequence of Transferrin (P02787 20-698): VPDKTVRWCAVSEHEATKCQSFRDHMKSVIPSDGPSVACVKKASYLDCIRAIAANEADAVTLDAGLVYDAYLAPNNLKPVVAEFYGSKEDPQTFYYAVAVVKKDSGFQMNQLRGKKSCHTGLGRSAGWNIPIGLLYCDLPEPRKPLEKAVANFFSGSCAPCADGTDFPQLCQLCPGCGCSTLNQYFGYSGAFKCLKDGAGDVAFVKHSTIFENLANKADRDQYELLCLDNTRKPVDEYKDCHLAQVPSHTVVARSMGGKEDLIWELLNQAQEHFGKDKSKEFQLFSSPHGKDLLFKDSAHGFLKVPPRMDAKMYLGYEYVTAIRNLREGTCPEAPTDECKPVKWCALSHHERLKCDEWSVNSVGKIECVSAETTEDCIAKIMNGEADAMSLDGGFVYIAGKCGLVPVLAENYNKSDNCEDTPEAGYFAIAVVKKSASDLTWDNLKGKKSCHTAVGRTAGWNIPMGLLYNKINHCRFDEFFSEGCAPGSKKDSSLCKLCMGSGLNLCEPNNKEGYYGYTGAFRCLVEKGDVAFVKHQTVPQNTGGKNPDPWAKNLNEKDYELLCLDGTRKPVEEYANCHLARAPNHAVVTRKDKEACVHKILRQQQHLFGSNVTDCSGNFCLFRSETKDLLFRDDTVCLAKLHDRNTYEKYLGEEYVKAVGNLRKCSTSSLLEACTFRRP

[Os+2].c1ccc2cc3nc4c5cccnc5c5ncccc5c4nc3cc2c1.c1ccc2nc(-c3ccc4ccccc4n3)ccc2c1.c1ccc2nc(-c3ccc4ccccc4n3)ccc2c1 [TLDOsH2dppn]
transferrin binding (absorption spectra) [1]: transferrin binding
PDT effect under hypoxic conditions, effect of transferrin [2]: ensured PDT effect
singlet oxygen production [3, 6]: 35127
singlet oxygen production [3, 7]: 43927
singlet oxygen production [3, 8]: 61734
singlet oxygen production [3, 9]: 36391
singlet oxygen production [3, 10]: 42816
singlet oxygen production [3, 11]: 56372
singlet oxygen production [3, 12]: 77219
singlet oxygen production [3, 13]: 25937
singlet oxygen production [3, 14]: 53931
singlet oxygen production [3, 15]: 75293
singlet oxygen production [3, 16]: 81807
singlet oxygen production [3, 17]: 15109
singlet oxygen production [3, 18]: 42837
singlet oxygen production [3, 19]: 51832
singlet oxygen production [3, 20]: 72938
singlet oxygen production [3, 21]: 10392
singlet oxygen production [3, 22]: 25384
singlet oxygen production [3, 23]: 55631
singlet oxygen production [3, 24]: 62804
singlet oxygen production [3, 25]: 11907
singlet oxygen production [3, 26]: 10000
singlet oxygen production [3, 27]: 30000
singlet oxygen production [3, 28]: 40000
singlet oxygen production [3, 29]: 8000
hydroxyl radical production [4, 6]: 70308
hydroxyl radical production [4, 7]: 132309
hydroxyl radical production [4, 8]: 164301
hydroxyl radical production [4, 9]: 32934
hydroxyl radical production [4, 10]: 41037
hydroxyl radical production [4, 11]: 83034
hydroxyl radical production [4, 12]: 120307
hydroxyl radical production [4, 13]: 25290
hydroxyl radical production [4, 14]: 32531
hydroxyl radical production [4, 15]: 42806
hydroxyl radical production [4, 16]: 73624
hydroxyl radical production [4, 17]: 12093
hydroxyl radical production [4, 18]: 25280
hydroxyl radical production [4, 19]: 45372
hydroxyl radical production [4, 20]: 72316
hydroxyl radical production [4, 21]: 8804
hydroxyl radical production [4, 22]: 42305
hydroxyl radical production [4, 23]: 77024
hydroxyl radical production [4, 24]: 102864
hydroxyl radical production [4, 25]: 14237
hydroxyl radical production [4, 26]: 13408
hydroxyl radical production [4, 27]: 20392
hydroxyl radical production [4, 28]: 56094
hydroxyl radical production [4, 29]: 8931
Therapeutic Ratio ([5]; 530 nm, 90 J cm−2, no transferrin): 1548.2
Therapeutic Ratio ([5]; 530 nm, 90 J cm−2, transferrin): 4963.8
Therapeutic Ratio ([5]; 650 nm, 90 J cm−2, no transferrin (cell not marked prophetic)): 37.7
Therapeutic Ratio ([5]; 650 nm, 90 J cm−2, transferrin): 61.9
